# Laboratory results: patent US8383547B2 (priority 2005, dated 2013)
# How the values were obtained:
# [1] = tested on: aflatoxin-producing microorganism; details: Non-Patent Literature 3; cited from earlier work
# [2] = tested on: Aspergillus parasiticus NRRL2999; type: cell-based
# [3] = tested on: Aspergillus parasiticus NRRL2999; type: cell-based; remark: listed apart in the source
# [4] = tested on: dipeptidyl aminopeptidase II (DPP II); details: stated as known; cited from earlier work
molecule,measurement,setting,value
Cc1cccc2sc3nncn3c12 [tricyclazole],Aflatoxin production inhibitory activity,[1],weak
COP(=O)(OC)OC=C(Cl)Cl [dichlorvos],Aflatoxin production inhibitory activity,[1],weak
NCCCC(N)C(=O)N1CCCCC1 (stereo not drawn) [Orn-Pip],Inhibition of aflatoxin production,[2],neither Orn-Pip nor Dab-Pip inhibited aflatoxin production
same,Inhibition of growth of aflatoxin-producing microorganism,[3],not observed
same,DPPII inhibition (known),[4],strong inhibitor
NCC[C@H](N)C(=O)N1CCCCC1 [Dab-Pip],Inhibition of aflatoxin production,[2],neither Orn-Pip nor Dab-Pip inhibited aflatoxin production
same,Inhibition of growth of aflatoxin-producing microorganism,[3],not observed
same,DPPII inhibition (known),[4],strong inhibitor
dioctatin,DPPII inhibition (known),[4],inhibition of dipeptidyl aminopeptidase II
